Like-named read-outs stand apart in the source and are kept apart here.
Tests used:
[1] = tested on: Non-Obese Diabetic (NOD/LtJ) mice; test: Diabetes incidence (serum glucose >300 mg/dL) in vitamin D-deficient NOD mice given 1,25(OH)2D3 in the diet; format: in vivo, mouse; conditions: for incidence of diabetes: 50 ng/mouse/day in diet from weaning, at termination of experiment
Text: Non-Obese Diabetic (NOD/LtJ) mice were purchased from The Jackson laboratory (Bar Harbor, Me. 04609). Mice were maintained on highly purified vitamin D-deficient diet containing 0.47% calcium and 0.3% phosphorus supplemented with vitamins A, E, and K. This diet was solidified by the addition of molten agar to a powdered diet. To obtain vitamin D-deficiency in the offspring, pregnant mothers were maintained on the vitamin D-deficient diet. Then, offspring, once weaned, were further maintained on the vitamin D-deficient diet. […] Treatment with 1,25(OH)2D3 was started at weaning. Animals were bled from the extraorbital sinus with a glass pipette after a four hour fast at 2 pm once a week. Serum glucose was determined using the Trinder glucose oxidase enzyme assay kit purchased from Sigma (St. Louis, Mo.). 5 μL of NOD serum was used as an unknown and analyzed spectrophotometrically at 505 nm against a known glucose standard (Sigma, St. Louis, Mo.). An animal was considered diabetic if its serum glucose was greater than 300 mg/dL.

[2] = Serum calcium and hypercalcemia in NOD mice given dietary 1,25(OH)2D3 (study A); format: in vivo, mouse; conditions: for serum calcium: 50 ng each day
Text: Non-Obese Diabetic (NOD/LtJ) mice were purchased from The Jackson laboratory (Bar Harbor, Me. 04609). Mice were maintained on highly purified vitamin D-deficient diet containing 0.47% calcium and 0.3% phosphorus supplemented with vitamins A, E, and K. This diet was solidified by the addition of molten agar to a powdered diet. To obtain vitamin D-deficiency in the offspring, pregnant mothers were maintained on the vitamin D-deficient diet. Then, offspring, once weaned, were further maintained on the vitamin D-deficient diet. […] Animals were bled from the extraorbital sinus with a glass pipette after a four hour fast at 2 pm once a week.
Blood was immediately centrifuged to obtain serum. Serum was diluted in 0.1% lanthanum chloride, and serum calcium was measured by atomic absorption using a Perkin-Elmer model 3110 atomic absorption spectrometer.

female NOD/LtJ mice [3] = test: Injection vs. Dietary Study: diabetic incidence at day 200; format: in vivo, mouse
Protocol: NOD/LtJ mice were fed control diets (purified Diet 11 as described in Suda, et al., J. Nutr. 100:1049-1052 1970, 0.47% calcium +vitamins A, D, E and K) or experimental diets (control +10, 25 or 50 ng of 1,25D3/mouse/day).
Control (vehicle) animals were injected with 50 μL sterile peanut oil while the experimental animals were injected with 5 μg/kg 1,25D3/mouse/2 days in sterile peanut oil.
(§1) Mice were weaned at 21 days and placed on the appropriate diets. Injections and experimental diets were administered every 48 hours. Control diets were fed 3 times/week. Every 10 days beginning at day 30 and ending on day 170, mice were weighed and bled for serum calcium determination. Beginning on day 70, mice were tested for glucosuria 3 times/week. If a mouse tested positive, it was fasted for 4 hours and bled to measure serum glucose levels. If the fasting serum glucose level was greater than 300 mg%, the mouse was considered diabetic. All mice remaining at 200 days were sacrificed.

[4] = mouse, in vivo
Protocol: as §1

NOD/LtJ mice = test: Diabetes incidence by 200 days with 1,25(OH)2D3 diet started at weaning, 8 weeks or 100 days (study C); format: in vivo, mouse
Protocol: Animals: Mice from an in-house breeding colony of NOD/LtJ mice (Jackson Laboratory) were used for this study. Female mice were randomly weaned into each dietary group. 24 mice were used per group.
Diet Preparation: Experimental purified diets were prepared containing 0.47% calcium supplemented with 25 IU vitamin D3 (Diet 11). […] All purified powder diets were solidified by mixing with molten agar to ensure animals consumed the exact dose of 1,25(OH)2D3. Each mouse was administered 3.5 grams of powder diet per day.
Diet Administration: Experimental purified diets were administered beginning at weaning (3 weeks of age) until 200 days of age. 1,25(OH)2D3-containing diet was administered beginning at weaning (group 2), beginning at 8 weeks of age (group 3), or beginning at 100 days of age (group 4).
Serum glucose determination: Serum glucose was measured using an enzymatic colorimetric assay (Glucose liquicolor, Stanbio, Boerne, Tex.).
Disease analysis: Urine samples were obtained twice weekly from animals older than 70 days of age and tested for urinary glucose using Diastix (Bayer, Elkhart, Ind.). Serum glucose was measured from animals with urine glucose readings >250 mg/dL. Animals with multiple serum glucose values >300 mg/dL at least 24 hours apart were considered diabetic and sacrificed via CO2 asphyxiation. All remaining animals were sacrificed at 200 days of age.

female NOD/LtJ mice [5] = test: Injection vs. Dietary Study: diabetic incidence at day 200; format: in vivo, mouse; conditions: injection of 50 μg/day (so in the source)
NOD mice = conditions: cited from earlier work; for total diabetes incidence at 200 days: control 86%
[6] = administered from 100 to 200 days of age

For `C=C1/C(=C\C=C2/CCC[C@]3(C)[C@@H]([C@H](C)CCCC(C)(C)O)CC[C@@H]23)C[C@@H](O)C[C@@H]1O` [1,25(OH)2D3, 1α,25-dihydroxyvitamin D3], the serum glucose values ([1]; 200 ng group, at any time) was at most 300 mg/dL, the incidence of diabetes ([1]; female NOD mice) was 7.69% and the incidence of diabetes ([1]; male NOD mice) was 7.14%. For the same compound, the “serum calcium levels (evidence of hypercalcemia)” value ([2]; 200 ng group) was at least 12 mg/dL, the serum calcium ([2]; females, at 40 days) was 10.50 ± 1.53 mg/dL and the serum calcium ([2]; females, at 150 days of age) was 13.10 ± 1.01 mg/dL. The “number of NOD females died of hypercalcemia” value ([2]; females, 50 ng, by 150 days of age) was 7, the serum calcium ([2]; males, at 40 days) was 9.22 ± 0.93 mg/dL and the serum calcium ([2]; males, at 150 days of age) was 12.78 ± 1.11 mg/dL. The “db %=” value (female NOD/LtJ mice [3]; 10 ng diet, day 200) was 11%, the “db n=” value (female NOD/LtJ mice [3]; 10 ng diet, day 200, n=9) was 1 and the “db %=” value (female NOD/LtJ mice [3]; 25 ng diet, day 200) was 22%. The “db n=” value (female NOD/LtJ mice [3]; 25 ng diet, day 200, n=9) was 2, the “db %=” value (female NOD/LtJ mice [3]; 50 ng diet, day 200) was 25% and the “db n=” value (female NOD/LtJ mice [3]; 50 ng diet, day 200, n=8) was 2. For the same compound, the diabetes incidence (female NOD/LtJ mice [3]; in the diet (oral treatment), day 200) was 10-25%, the “db %=” value (female NOD/LtJ mice [3]; injected 5 μg/kg/2 days in peanut oil, day 200) was 71% and the “db n=” value (female NOD/LtJ mice [3]; injected 5 μg/kg/2 days in peanut oil, day 200, n=7) was 5. The incidence of diabetes (female NOD/LtJ mice [3]; injected, day 200) was “over 70%”, the hypercalcemia [4] was “clearly caused hypercalcemia” and the “became diabetic by 200 days of age” value (NOD/LtJ mice; 50 ng in diet after 100 days of age (group 4), 23 animals) was 8.7%. The “animals that became diabetic by 200 days of age” value (NOD/LtJ mice; 50 ng in diet beginning at 8 weeks of age (group 3)) was 0 of 24, the “became diabetic by 200 days of age” value (NOD/LtJ mice; 50 ng in diet from weaning (group 2), 24 mice) was 4.2% and the “effect of injection on incidence of diabetes” value (female NOD/LtJ mice [5]) was “increased rather than decreased the incidence of diabetes”. For the same compound, the diabetic incidence (NOD mice; [6]) was “same diabetic incidence as the control group”, the onset of diabetes (NOD mice; [6]) was “appeared to be slightly delayed” and the incidence of diabetes (NOD mice; female NOD mice, injection of 5 μg/kg, control 56%) was 8%. The bone calcium (NOD mice; mouse, in vivo) was “reduced”, the “total diabetes incidence at 200 days” value (NOD mice; treated only until 100 days of age) was “about 35%” and the “total diabetes incidence at 200 days” value (NOD mice; treated until 200 days of age) was 13%.

Source: US20060079490A1, “Method of treatment of type I diabetes” (priority 2001, published 2006)
